Assay results published in patent US9328099B2, “Cyanomethylpyrazole carboxamides as janus kinase inhibitors” (Merck Sharp & Dohme Corp., priority 2011, dated 2016).

What was measured:
JAK1 = JAK1 (Homo sapiens (Human), UniProt P23458); test: Jak Biochemical HTRF Assay, JAK1; conditions: HTRF biochemical assay, GST-tagged catalytic domain; top concentration tested […]; read-out: JAK1 IC50
From the text: (§1) Jak Biochemical HTRF Assay Protocol
(§2) Subsequent reagent additions employed an Agilent Bravo.

JAK2 = JAK2 (Homo sapiens (Human), UniProt O60674); test: Jak Biochemical HTRF Assay, JAK2; conditions: HTRF biochemical assay, GST-tagged catalytic domain; top concentration tested […]
JAK2, sequence (O60674 849-1124): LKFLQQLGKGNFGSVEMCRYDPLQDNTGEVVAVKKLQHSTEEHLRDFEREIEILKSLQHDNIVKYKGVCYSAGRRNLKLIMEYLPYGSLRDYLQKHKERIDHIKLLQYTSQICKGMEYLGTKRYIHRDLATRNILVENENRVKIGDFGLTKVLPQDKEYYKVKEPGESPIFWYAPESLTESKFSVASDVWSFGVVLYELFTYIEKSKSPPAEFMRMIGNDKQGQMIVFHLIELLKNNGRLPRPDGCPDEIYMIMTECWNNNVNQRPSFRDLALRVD
From the text: as §1, §2

JAK1, sequence (P23458 875-1153): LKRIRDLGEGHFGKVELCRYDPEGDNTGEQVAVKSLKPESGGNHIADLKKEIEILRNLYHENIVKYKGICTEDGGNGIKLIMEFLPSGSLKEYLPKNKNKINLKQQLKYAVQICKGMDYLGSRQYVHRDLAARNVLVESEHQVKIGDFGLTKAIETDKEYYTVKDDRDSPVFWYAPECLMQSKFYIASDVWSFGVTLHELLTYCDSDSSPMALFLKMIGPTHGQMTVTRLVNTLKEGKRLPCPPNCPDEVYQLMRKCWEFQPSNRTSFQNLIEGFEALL

SMILES	IC50 (JAK1) [nM]	IC50 (JAK2) [nM]
Cc1noc(-c2ccc(Nc3nn(C4(CC#N)CCN(C(=O)OC(C)(C)C)CC4)cc3C(N)=O)cc2)n1 [Example 9-30, tert-butyl 4-(4-carbamoyl-3-{[4-(3-methyl-1,2,4-oxadiazol-5-yl)phenyl]amino}-1H-pyrazol-1-yl)-4-(cyanomethyl)piperidine-1-carboxylate]	0.2	5
Cc1nc(-c2ccc(Nc3nn(C4(CC#N)CCN(C(=O)OC(C)(C)C)CC4)cc3C(N)=O)cc2)no1 [Example 9-32, tert-butyl 4-(4-carbamoyl-3-{[4-(5-methyl-1,2,4-oxadiazol-3-yl)phenyl]amino}-1H-pyrazol-1-yl)-4-(cyanomethyl)piperidine-1-carboxylate]	0.3	8
CC(C)(C)OC(=O)N1CCC(CC#N)(n2cc(C(N)=O)c(Nc3ccnc(C#N)c3)n2)CC1 [Example 9-33, tert-butyl 4-{4-carbamoyl-3-[(2-cyanopyridin-4-yl)amino]-1H-pyrazol-1-yl}-4-(cyanomethyl)piperidine-1-carboxylate]	0.2	6
CC(C)(C)OC(=O)N1CCC(CC#N)(n2cc(C(N)=O)c(Nc3cccnc3)n2)CC1 [Example 9-34, tert-butyl 4-[4-carbamoyl-3-(pyridin-3-ylamino)-1H-pyrazol-1-yl]-4-(cyanomethyl)piperidine-1-carboxylate]	0.5	4
CC(C)(C)OC(=O)N1CCC(CC#N)(n2cc(C(N)=O)c(Nc3cncc(F)c3)n2)CC1 [Example 9-35, tert-butyl 4-{4-carbamoyl-3-[(5-fluoropyridin-3-yl)amino]-1H-pyrazol-1-yl}-4-(cyanomethyl)piperidine-1-carboxylate]	1	16
CC(C)(C)OC(=O)N1CCC(CC#N)(n2cc(C(N)=O)c(Nc3cncc(Cl)c3)n2)CC1 [Example 9-36, tert-butyl 4-{4-carbamoyl-3-[(5-chloropyridin-3-yl)amino]-1H-pyrazol-1-yl}-4-(cyanomethyl)piperidine-1-carboxylate]	0.9	21
N#CCC1(n2cc(C(N)=O)c(Nc3ccc(C4CCC4)nc3)n2)CCN(C(=O)OCC(F)F)CC1 [Example 9-38, 2,2-difluoroethyl 4-{4-carbamoyl-3-[(6-cyclobutylpyridin-3-yl)amino]-1H-pyrazol-1-yl}-4-(cyanomethyl)piperidine-1-carboxylate]	0.3	3
COc1cc(Nc2nn(C3(CC#N)CCN(C(=O)OCC(F)F)CC3)cc2C(N)=O)ccn1 [Example 9-39, 2,2-difluoroethyl 4-{4-carbamoyl-3-[(2-methoxypyridin-4-yl)amino]-1H-pyrazol-1-yl}-4-(cyanomethyl)piperidine-1-carboxylate]	7	348
N#CCC1(n2cc(C(N)=O)c(Nc3ccnc(C4CC4)c3)n2)CCN(C(=O)OCC(F)F)CC1 [Example 9-41, 2,2-difluoroethyl 4-{4-carbamoyl-3-[(2-cyclopropylpyridin-4-yl)amino]-1H-pyrazol-1-yl}-4-(cyanomethyl)piperidine-1-carboxylate]	6	201
N#CCC1(n2cc(C(N)=O)c(Nc3ccc(S(=O)(=O)C(F)(F)F)cc3)n2)CCN(C(=O)OCC(F)(F)F)CC1 [Example 10-2, 2,2,2-trifluoroethyl 4-(4-carbamoyl-3-(4-(trifluoromethylsulfonyl)phenylamino)-1H-pyrazol-1-yl)-4-(cyanomethyl)piperidine-1-carboxylate]	0.5	4
N#CCC1(n2cc(C(N)=O)c(Nc3ccc(C(O)C(F)(F)F)nc3)n2)CCN(C(=O)OCC(F)(F)F)CC1 (centres unmarked) [Example 10-3, 2,2,2-trifluoroethyl 4-(4-carbamoyl-3-(6-(2,2,2-trifluoro-1-hydroxyethyl)pyridin-3-ylamino)-1H-pyrazol-1-yl)-4-(cyanomethyl)piperidine-1-carboxylate]	0.06	0.6
N#CCC1(n2cc(C(N)=O)c(Nc3cccc(-c4cc[nH]n4)c3)n2)CCN(C(=O)OCC(F)(F)F)CC1 [Example 10-4, 2,2,2-trifluoroethyl 4-(3-(3-(1H-pyrazol-3-yl)phenylamino)-4-carbamoyl-1H-pyrazol-1-yl)-4-(cyanomethyl)piperidine-1-carboxylate]	0.4	29
Cn1cc(-c2cccc(Nc3nn(C4(CC#N)CCN(C(=O)OCC(F)(F)F)CC4)cc3C(N)=O)c2)cn1 [Example 10-5, 2,2,2-trifluoroethyl 4-(4-carbamoyl-3-(3-(1-methyl-1H-pyrazol-4-yl)phenylamino)-1H-pyrazol-1-yl)-4-(cyanomethyl)piperidine-1-carboxylate]	0.2	21
Cn1cc(-c2cncc(Nc3nn(C4(CC#N)CCN(C(=O)OCC(F)(F)F)CC4)cc3C(N)=O)c2)cn1 [Example 10-6, 2,2,2-trifluoroethyl 4-(4-carbamoyl-3-(5-(1-methyl-1H-pyrazol-4-yl)pyridinl-3-ylamino)-1H-pyrazol-1-yl)-4-(cyanomethyl)piperidine-1-carboxylate]	0.8	71
N#CCC1(n2cc(C(N)=O)c(Nc3cccnc3)n2)CCN(C(=O)OCC(F)(F)F)CC1 [Example 10-7, 2,2,2-trifluoroethyl 4-(4-carbamoyl-3-(pyridin-3-ylamino)-1H-pyrazol-1-yl)-4-(cyanomethyl)piperidine-1-carboxylate]	0.2	4
N#CCC1(n2cc(C(N)=O)c(Nc3cncc(F)c3)n2)CCN(C(=O)OCC(F)(F)F)CC1 [Example 10-8, 2,2,2-trifluoroethyl 4-(4-carbamoyl-3-(5-fluoropyridin-3-ylamino)-1H-pyrazol-1-yl)-4-(cyanomethyl)piperidine-1-carboxylate]	0.7	21
N#CCC1(n2cc(C(N)=O)c(Nc3cncc(Cl)c3)n2)CCN(C(=O)OCC(F)(F)F)CC1 [Example 10-9, 2,2,2-trifluoroethyl 4-{4-carbamoyl-3-[(5-chloropyridin-3-yl)amino]-1H-pyrazol-1-yl}-4-(cyanomethyl)piperidine-1-carboxylate]	0.4	15
Cn1cc(-c2ccc(Nc3nn(C4(CC#N)CCN(C(=O)OCC(F)(F)F)CC4)cc3C(N)=O)cn2)cn1 [Example 11-1, 2,2,2-Trifluoroethyl 4-(4-carbamoyl-3-{[6-(1-methyl-1H-pyrazol-4-yl)pyridin-3-yl]amino}-1H-pyrazol-1-yl)-4-(cyanomethyl)piperidine-1-carboxylate]	0.03	0.5
N#CCC1(n2cc(C(N)=O)c(Nc3ccc(-c4cn[nH]c4)nc3)n2)CCN(C(=O)OCC(F)(F)F)CC1 [Example 11-2, 2,2,2-trifluoroethyl 4-(4-carbamoyl-3-{[6-(1H-pyrazol-4-yl)pyridin-3-yl]amino}-1H-pyrazol-1-yl)-4-(cyanomethyl)piperidine-1-carboxylate]	0.01	0.6
COC(=O)Cc1ccc(Nc2nn(C3(CC#N)CCN(C(=O)OC(C)(C)C)CC3)cc2C(N)=O)cc1 [Example 12-2, tert-butyl 4-(4-carbamoyl-3-{[4-(2-methoxy-2-oxoethyl)phenyl]amino}-1H-pyrazol-1-yl)-4-(cyanomethyl)piperidine-1-carboxylate]	0.2	3
CC(C)(C)OC(=O)N1CCC(CC#N)(n2cc(C(N)=O)c(Nc3cc(F)cc(F)c3)n2)CC1 [Example 12-3, tert-butyl 4-{4-carbamoyl-3-[(3,5-difluorophenyl)amino]-1H-pyrazol-1-yl}-4-(cyanomethyl)piperidine-1-carboxylate]	2	42
CC(C)(C)OC(=O)N1CCC(CC#N)(n2cc(C(N)=O)c(Nc3ccc(N4CCOCC4)nc3)n2)CC1 [Example 12-4, tert-butyl 4-(4-carbamoyl-3-{[6-(morpholin-4-yl)aphthal-3-yl]amino}-1H-pyrazol-1-yl)-4-(cyanomethyl)piperidine-1-carboxylate]	0.8	3
CC(C)(C)OC(=O)N1CCC(CC#N)(n2cc(C(N)=O)c(Nc3ccc(F)nc3)n2)CC1 [Example 12-5, tert-butyl 4-{4-carbamoyl-3-[(6-fluoropyridin-3-yl)amino]-1H-pyrazol-1-yl}-4-(cyanomethyl)piperidine-1-carboxylate]	0.8	7
CC(C)(C)OC(=O)N1CCC(CC#N)(n2cc(C(N)=O)c(Nc3ccnnc3)n2)CC1 [Example 12-6, tert-butyl 4-[4-carbamoyl-3-(pyridazin-4-ylamino)-1H-pyrazol-1-yl]-4-(cyanomethyl)piperidine-1-carboxylate]	0.4	15
CC(C)(C)OC(=O)N1CCC(CC#N)(n2cc(C(N)=O)c(Nc3ccc4c(c3)CNC4=O)n2)CC1 [Example 12-7, tert-butyl 4-{4-carbamoyl-3-[(1-oxo-2,3-dihydro-1H-isoindol-5-yl)amino]-1H-pyrazol-1-yl}-4-(cyanomethyl)piperidine-1-carboxylate]	0.1	2
CC(C)(C)OC(=O)N1CCC(CC#N)(n2cc(C(N)=O)c(Nc3ccncn3)n2)CC1 [Example 13-1, tert-Butyl 4-(4-carbamoyl-3-(pyrimidin-4-ylamino)-1H-pyrazol-1-yl)-4-(cyanomethyl)piperidine-1-carboxylate]	3	139
Cc1cccc(Nc2nn(C3(CC#N)CCN(C(=O)OC(C)(C)C)CC3)cc2C(N)=O)n1 [Example 13-2, tert-butyl 4-(4-carbamoyl-3-(6-methylpyridin-2-ylamino)-1H-pyrazol-1-yl)-4-(cyanomethyl)piperidine-1-carboxylate]	13	1010
CC(C)(C)OC(=O)N1CCC(CC#N)(n2cc(C(N)=O)c(Nc3ccccn3)n2)CC1 [Example 13-3, tert-butyl 4-(4-carbamoyl-3-(pyridin-2-ylamino)-1H-pyrazol-1-yl)-4-(cyanomethyl)piperidine-1-carboxylate]	8	466
